Results taken from patent US20050159352A1, “Use of monocarboxylate transporter protein for thyroid hormone transport” (priority 2002, published 2005).
Like-named read-outs stand apart in the source and are kept apart here.

What was measured:
rat oatp1 = biological target: T1, rat oatp1 (Rattus norvegicus, UniProt P46720); conditions: literature (10); read-out: Apparent Km values for rat oatp1; cited from earlier work
T1 sequence (P46720 1-670): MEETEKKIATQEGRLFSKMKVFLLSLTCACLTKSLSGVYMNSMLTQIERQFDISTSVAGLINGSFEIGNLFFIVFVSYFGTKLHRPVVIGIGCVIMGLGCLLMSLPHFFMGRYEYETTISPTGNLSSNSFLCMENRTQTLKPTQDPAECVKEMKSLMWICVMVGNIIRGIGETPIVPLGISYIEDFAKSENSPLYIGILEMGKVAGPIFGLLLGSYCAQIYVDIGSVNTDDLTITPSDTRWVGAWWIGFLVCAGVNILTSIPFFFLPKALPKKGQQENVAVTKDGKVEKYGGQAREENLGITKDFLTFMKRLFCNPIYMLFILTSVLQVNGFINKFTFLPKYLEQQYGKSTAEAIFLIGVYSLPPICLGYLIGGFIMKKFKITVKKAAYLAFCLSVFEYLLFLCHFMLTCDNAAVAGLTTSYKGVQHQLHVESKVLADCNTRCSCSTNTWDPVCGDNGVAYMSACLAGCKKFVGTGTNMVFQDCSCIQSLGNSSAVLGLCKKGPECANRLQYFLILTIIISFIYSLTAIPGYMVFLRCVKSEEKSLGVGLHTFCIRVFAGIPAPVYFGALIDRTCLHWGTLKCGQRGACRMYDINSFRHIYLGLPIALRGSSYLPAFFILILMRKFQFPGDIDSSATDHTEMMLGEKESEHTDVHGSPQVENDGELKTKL

MCT8 [1] = biological target: T2, MCT8 (Rattus norvegicus, UniProt Q8K1P8); experiment: Inhibition of uptake of labeled T4 and T3 in MCT8 cRNA-injected oocytes by putative competitors; type: cell-based; conditions: labeled T3 10 nm, MCT8 cRNA-injected oocytes
T2 construct: the stop codon of MCT8 was removed by performing PCR using the same sense primer as above; expressed in transfected cells; host or cells: Xenopus laevis oocytes injected with cRNA transcribed from pGEM-HeJuel
Description: (§1) Oocytes were isolated and allowed to recover overnight at 18 C in modified Barth's solution containing 20 IU/ml penicillin and 20 gg/ml streptomycin as described before (23). […] Uninjected or water injected oocytes were used as controls.
(§2) Transport measurements in oocytes—Oocytes were washed and preincubated at 18 C in standard uptake solution (100 mM NaCl, 2 mM KCl, 1 mM CaCl2, 1 mM MgCl2, 10 mM HEPES, and 10 mM Tris, pH 7.5). […] The possible Na^+ dependence of transport was tested by preincubation and incubation in Na^+-free uptake solution in which NaCl was replaced by choline chloride. The influence of the temperature on the uptake rate was tested by the incubation of oocytes with uptake solutions at different temperatures between 4 and 37 C. […] The incubation was stopped by aspiration of the medium, and oocytes were washed 4 times at 4 C with standard uptake solution containing 0.1% BSA.

MCT8 [2] = biological target: T3, MCT8 (Rattus norvegicus, UniProt Q8K1P8, G227D/I169T/S199P/T171I); experiment: as above; type: cell-based; set-up: the stop codon of MCT8 was removed by performing PCR using the same sense primer as above; expressed in transfected cells; host or cells: Xenopus laevis oocytes injected with cRNA transcribed from pGEM-HeJuel; conditions: for Inhibition of labeled T4 and T3 uptake by MCT8 (in words): unlabeled competitor, taurocholate and probenecid data not shown
Description: as §1, §2

MCT8 [3] = biological target: T3, MCT8; experiment: Transport (uptake) of radioactive ligands by MCT8 expressed in X. laevis oocytes; type: cell-based; set-up: the stop codon of MCT8 was removed by performing PCR using the same sense primer as above; expressed in transfected cells; host or cells: Xenopus laevis oocytes injected with cRNA transcribed from pGEM-HeJuel; conditions: 10 nM iodothyronines or amino acids; MCT8 cRNA-injected vs uninjected oocytes
Description: Xenopus oocytes were isolated and injected with 4.6 ng rat MCTS cRNA. After 3 days, groups of 10 injected or uninjected oocytes were incubated for 60 mm at 25 C with 10 nM radioactive iodothyronines in 0.1 ml medium. Uptake of iodothyronines was determined as previously described (18).
as §1
Transport measurements in oocytes—Oocytes were washed and preincubated at 18 C in standard uptake solution (100 mM NaCl, 2 mM KCl, 1 mM CaCl2, 1 mM MgCl2, 10 mM HEPES, and 10 mM Tris, pH 7.5). Usually, transport was tested by incubation of groups of 5-10 oocytes for 2-60 mm at 25 C with 10 nM [1251]iodothyronines or 10 μM [3H]amino acids in 0.1 ml standard uptake solution. The possible Na^+ dependence of transport was tested by preincubation and incubation in Na^+-free uptake solution in which NaCl was replaced by choline chloride. The influence of the temperature on the uptake rate was tested by the incubation of oocytes with uptake solutions at different temperatures between 4 and 37 C. […] The incubation was stopped by aspiration of the medium, and oocytes were washed 4 times at 4 C with standard uptake solution containing 0.1% BSA.

rat MCT1 = biological target: T4, rat MCT1 (Rattus norvegicus, UniProt P53987); conditions: data not shown
T4 sequence (P53987 1-494): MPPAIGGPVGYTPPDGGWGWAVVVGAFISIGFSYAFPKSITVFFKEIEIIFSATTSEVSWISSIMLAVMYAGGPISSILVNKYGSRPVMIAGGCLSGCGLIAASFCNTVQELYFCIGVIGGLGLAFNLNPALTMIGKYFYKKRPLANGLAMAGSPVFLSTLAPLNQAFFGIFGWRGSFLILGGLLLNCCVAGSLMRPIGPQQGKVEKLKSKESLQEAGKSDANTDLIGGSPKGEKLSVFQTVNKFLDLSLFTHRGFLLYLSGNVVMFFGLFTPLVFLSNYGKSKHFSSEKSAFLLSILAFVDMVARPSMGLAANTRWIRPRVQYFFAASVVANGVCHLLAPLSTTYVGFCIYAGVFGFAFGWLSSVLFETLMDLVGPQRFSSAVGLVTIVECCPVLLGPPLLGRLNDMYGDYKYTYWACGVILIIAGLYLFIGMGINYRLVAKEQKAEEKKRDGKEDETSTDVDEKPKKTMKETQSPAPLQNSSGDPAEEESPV

MCT8 [4] = biological target: T3, MCT8; experiment: Transport kinetics of MCT8-mediated iodothyronine uptake in oocytes (Michaelis-Menten); set-up: dose or concentration left out as unconfirmed; conditions: net transport
Description: Apparent Km values were calculated by fitting the plot of uptake rate (v) versus ligand concentration (5) to the Michaelis Menten equation: v=Vmax/(1+Km/S), wherein Vmax is the maximum uptake rate, and Km the Michaelis constant. Calculations were performed using the Slide Write Plus program version 5.01 (Advanced Graphics Software).

MCT8 [5] = biological target: T3, MCT8; experiment: Uptake and metabolism (sulfation) of rT3 in MCT8 cRNA-injected oocytes; type: cell-based; set-up: the stop codon of MCT8 was removed by performing PCR using the same sense primer as above; expressed in transfected cells; host or cells: Xenopus laevis oocytes injected with cRNA transcribed from pGEM-HeJuel; conditions: 10 nM rT3, 2-60 min, 25 C
Description: Analysis of rT3 metabolism in oocytes—Groups of 10 oocytes were incubated for 2-60 mm at 25 C with 10 nM ['25IIrTa. After incubation, medium was collected, and 2 groups of 5 oocytes were counted separately and homogenized in 0.1 ml 0.1 M NaOH as described before (25). Lysates were cleared by centrifugation. Lysates (in duplicate) and incubation media were acidified with 0.1 M HCl and analyzed by Sephadex LH-20 chromatography (21). The different products were successively eluted with 0.1 M HCl (iodide), water (conjugates), and 1% NH4OH in ethanol (iodothyronines).
Metabolism of rT3—Previous studies have shown that X. laevis oocytes actively metabolize rT3 by sulfation. Since sulfotransferases are located intracellularly, we have used this property to investigate rT3 internalization by oocytes. […] At several time points, uninjected and MCT8 cRNA-injected oocytes are homogenized, and the homogenates and medium samples are analyzed for rT3 and rT3 sulfate (rT3S) content. It is shown that already after 2 mm of incubation, rT3S is formed intracellularly in the MCT8 cRNA-injected oocytes. After 10 mm of incubation, release of rT3S into the medium is observed. The production rate of rT3S is much higher in MCT8 cRNA-injected oocytes than in uninjected cells.

[6] = labeled T4 10 nm, inhibitor 100 μM, MCT8 cRNA-injected oocytes
[7] = labeled T4 10 nm, inhibitor 10 μM, MCT8 cRNA-injected oocytes

T3 sequence (Q8K1P8 whole entry I169T/T171I/S199P/G227D): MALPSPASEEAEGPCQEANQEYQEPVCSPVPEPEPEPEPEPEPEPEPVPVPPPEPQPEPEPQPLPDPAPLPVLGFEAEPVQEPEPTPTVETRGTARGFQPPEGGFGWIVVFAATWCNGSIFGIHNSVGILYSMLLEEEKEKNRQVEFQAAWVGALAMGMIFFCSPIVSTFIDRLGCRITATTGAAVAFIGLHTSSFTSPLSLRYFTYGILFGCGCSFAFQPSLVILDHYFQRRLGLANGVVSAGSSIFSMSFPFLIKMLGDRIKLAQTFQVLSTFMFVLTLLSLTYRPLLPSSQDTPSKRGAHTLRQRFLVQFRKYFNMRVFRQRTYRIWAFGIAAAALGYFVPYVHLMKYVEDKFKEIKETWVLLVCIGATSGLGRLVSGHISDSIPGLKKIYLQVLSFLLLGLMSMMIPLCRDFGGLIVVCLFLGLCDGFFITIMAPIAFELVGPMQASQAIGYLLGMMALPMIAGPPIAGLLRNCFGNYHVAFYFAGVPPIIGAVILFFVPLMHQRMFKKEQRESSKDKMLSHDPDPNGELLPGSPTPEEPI
T2 sequence (Q8K1P8 whole entry I169T/T171I/S199P/G227D): as above

Row | Inhibition of labeled T4 and T3 uptake by MCT8 (in words) (MCT8 [2]) | Substrate specificity: transport by MCT8 (in words) (MCT8 [3]) | Structure (SMILES) | also measured
1 | potently inhibited |  | O=C(CBr)N[C@@H](Cc1cc(I)c(Oc2ccc(O)c(I)c2)c(I)c1)C(=O)O [BrAcT3, N-bromoacetyl-3,3′,5-triiodothyronine] | inhibition at 10 µM (MCT8 [2]; labeled T4 10 nm, inhibitor 10 μM, MCT8 cRNA-injected oocytes, read-out: % inhibition ± SEM of uptake of T4): 90 ± 3%; inhibition at 10 µM (MCT8 [2]; read-out: % inhibition ± SEM of uptake of T3): 67 ± 1%
2 | potently inhibited |  | N[C@H](Cc1cc(I)c(Oc2ccc(O)c(I)c2)c(I)c1)C(=O)O [D-T3] | % inhibition ± SEM of uptake of T3 (MCT8 [1]; inhibitor 10 μM): 24 ± 5%; % inhibition ± SEM of uptake of T4 (MCT8 [2]; [7]): 72 ± 3%
3 | potently inhibited |  | N[C@H](Cc1cc(I)c(Oc2cc(I)c(O)c(I)c2)c(I)c1)C(=O)O [D-T4] | % inhibition ± SEM of uptake of T3 (MCT8 [1]; inhibitor 10 μM): 21 ± 5%; % inhibition ± SEM of uptake of T4 (MCT8 [2]; [7]): 76 ± 7%
4 |  | not transported | CC(C)C[C@H](N)C(=O)O [Leu] | 
5 |  | not transported | N[C@@H](Cc1ccccc1)C(=O)O [Phe] | 
6 | hardly affected | not transported | N[C@@H](Cc1c[nH]c2ccccc12)C(=O)O [Trp] | % inhibition ± SEM of uptake of T3 (MCT8 [1]; inhibitor 100 μM): 0 ± 7%; % inhibition ± SEM of uptake of T4 (MCT8 [2]; [6]): 22 ± 6%
7 | hardly affected | not transported | N[C@@H](Cc1ccc(O)cc1)C(=O)O [Tyr] | % inhibition ± SEM of uptake of T3 (MCT8 [1]; inhibitor 100 μM): 0 ± 9%; % inhibition ± SEM of uptake of T4 (MCT8 [2]; [6]): 37 ± 6%
8 |  | unable to demonstrate any transport | CC(O)C(=O)O (centres unmarked) [lactate] | Transport in rat MCT1 cRNA-injected oocytes compared to control oocytes (in words) (rat MCT1): greatly stimulated
9 | weak effects |  | CCCN(CCC)S(=O)(=O)c1ccc(C(=O)O)cc1 [probenecid] | 

Row | Structure (SMILES) | Inhibition of labeled T4 and T3 uptake by MCT8 (in words) (MCT8 [2]) | Substrate specificity: transport by MCT8 (in words) (MCT8 [3]) | also measured
10 | O=C1OC(c2ccc(O)c(S(=O)(=O)O)c2)(c2ccc(O)c(S(=O)(=O)O)c2)c2c(Br)c(Br)c(Br)c(Br)c21 [BSP, bromosulfophthalein] | potent inhibitor |  | Km (rat oatp1): 1.5 µM; % inhibition ± SEM of uptake of T3 (MCT8 [1]; inhibitor 100 μM): 81 ± 1%; % inhibition ± SEM of uptake of T4 (MCT8 [2]; [6]): 94 ± 2%
11 | N[C@@H](Cc1ccc(Oc2ccc(O)c(I)c2)c(I)c1)C(=O)O [T2, 3,3′-diiodothyronine] |  | rapid uptake | 
12 | NS(=O)(=O)O [T4NS] |  | not transported | 
13 | N[C@@H](Cc1cc(I)c(Oc2cc(I)c(OS(=O)(=O)O)c(I)c2)c(I)c1)C(=O)O [T4S] |  | not transported | 
14 | N[C@@H](Cc1ccc(Oc2cc(I)c(O)c(I)c2)c(I)c1)C(=O)O [rT3, 3,3′,5′-triiodothyronine] |  | rapid uptake | Saturability of transport by MCT8 (MCT8 [4]): saturable; Production rate of rT3S in MCT8 cRNA-injected oocytes versus uninjected cells (MCT8 [5]): much higher
